{"source": "patent US20190208766A1", "about": "“COMPOSITION FOR THE CONSERVATION/FIXATION OF BIOLOGICAL MATERIAL” (priority 2016, published 2019)", "origin": "cited, not measured here", "tested_on": "airways", "conditions": "in vivo", "data": [{"smiles": "C=O", "note": "[formaldehyde]", "values": [{"measurement": "concentration causing sense of suffocation", "value": "greater than 10 ppm"}, {"measurement": "exposure that can lead to pulmonary edema", "value": "greater than 20 ppm"}]}]}
